Patent US8536120B2 (The Administrators of The Tulane Educational Fund, priority 2006, dated 2013)
Where a SMILES comes first, the peptide text is derived from it. Where no end group is shown, it is not given here. [ ]: non-standard residue; d: D form. dTrp(2-Me) = Cc1[nH]c2ccccc2c1C[C@@H](N)C(=O)O; d2Nal = N[C@H](Cc1ccc2ccccc2c1)C(=O)O

Experiments:
[1] = target: T1, human ghrelin receptor type 1a (GHS-R1a) (Homo sapiens, UniProt Q92847); experiment: Receptor binding: displacement of radiolabelled ghrelin on membranes of HEK-293 cells; conditions: read-out: binding affinities (Ki)
T1 construct: expressed in transfected cells; host or cells: HEK-293 cells (membranes)
T1 sequence (Q92847 whole entry): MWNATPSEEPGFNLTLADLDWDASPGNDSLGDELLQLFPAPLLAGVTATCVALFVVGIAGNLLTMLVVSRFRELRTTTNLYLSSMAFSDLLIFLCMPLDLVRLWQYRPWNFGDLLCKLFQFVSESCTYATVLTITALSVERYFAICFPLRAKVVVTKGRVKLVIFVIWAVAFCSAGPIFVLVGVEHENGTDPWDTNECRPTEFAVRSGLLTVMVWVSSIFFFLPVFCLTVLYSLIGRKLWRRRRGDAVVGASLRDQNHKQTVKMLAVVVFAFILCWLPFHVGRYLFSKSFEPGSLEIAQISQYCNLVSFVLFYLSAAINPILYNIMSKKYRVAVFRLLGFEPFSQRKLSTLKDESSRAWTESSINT

ghrelin receptor [2] = target: T2, ghrelin receptor (Rattus norvegicus, UniProt O08725); experiment: Ghrelin-stimulated food intake in rats after icv GHS-A; type: in vivo; conditions: 500 ng ghrelin icv, vs normal saline
T2 construct: from tissue; host or cells: whole animal (rat), i.c.v. or i.v. dosing
T2 sequence (O08725 whole entry): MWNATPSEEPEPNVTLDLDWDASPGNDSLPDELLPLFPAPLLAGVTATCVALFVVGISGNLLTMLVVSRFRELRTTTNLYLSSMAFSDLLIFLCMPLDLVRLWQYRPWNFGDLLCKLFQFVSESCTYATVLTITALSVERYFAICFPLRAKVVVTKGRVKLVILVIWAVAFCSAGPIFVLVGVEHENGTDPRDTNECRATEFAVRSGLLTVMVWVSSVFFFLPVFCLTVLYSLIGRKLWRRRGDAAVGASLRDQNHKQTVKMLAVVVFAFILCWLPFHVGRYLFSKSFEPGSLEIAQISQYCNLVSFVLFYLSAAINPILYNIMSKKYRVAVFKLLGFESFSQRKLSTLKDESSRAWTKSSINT
Protocol: (§1) Adult male Sprague Dawley rats (225-260 g) were purchased from Charles River Canada (St. Constant, Canada) and individually housed on a 12-h light, 12-h dark cycle (lights on, 0600-1800 h) in a temperature (22±1° C.)—and humidity-controlled room. Purina rat chow (Ralston Purina Co., St. Louis, Mo.) and tap water were available ad libitum.
(§2) Chronic intracerebroventricular (i.c.v.) and intracardiac venous cannulas were implanted under sodium pentobarbital (50 mg/kg, i.p.) anesthesia using previously described techniques in (2) and (11). The placement of the icv cannulae was verified by both a positive drinking response to i.c.v. carbachol (100 ng/10 μl) injection on the day after surgery and methylene blue dye at the time of death. After surgery, the rats were placed directly in isolation test chambers with food and H2O freely available until body weight returned to preoperative levels (usually within 5-7 d). During this time the rats were handled daily to minimize any stress associated with handling on the day of the experiment. On the test day, food was removed 1.5 h before the start of sampling and was returned at the end.
Food intake was monitored on an hourly basis as described above. In this experiment, food was removed 1.5 h before the start of the test.

ghrelin receptor [3] = target: T2, ghrelin receptor; experiment: Spontaneous food intake in overnight-fasted rats after icv GHS-A; type: in vivo; conditions: 5 μg GHS-A icv; overnight-fasted animals; P<0.004 vs normal saline
Protocol: as §1
Chronic intracerebroventricular (i.c.v.) and intracardiac venous cannulas were implanted under sodium pentobarbital (50 mg/kg, i.p.) anesthesia using previously described techniques in (2) and (11). […]
The effects of the GHS-A on both spontaneous and ghrelin-induced food intake and body weight gain were investigated. […] Food intake was monitored on an hourly basis for 5 h after the initial injection (until 1600 h) and subsequently overnight (1600-0900 h next morning). A measured amount of rat chow pellets was placed in the cage every hour. Spillage was collected by placement of a diaper under the rat cages, and total food consumed for each period was calculated by subtracting uneaten food plus spillage from total given. Body weights were recorded daily at 0900 h. The latency to the onset of the first meal after the injection and the duration of that meal were also monitored.

ghrelin receptor [4] = target: T2, ghrelin receptor; experiment: Spontaneous pulsatile GH secretion in free-moving rats after icv GHS-A; type: in vivo; conditions: 5 μg GHS-A icv; vs normal saline; P<0.01 or less
Protocol: as §1, §2
These time points were chosen because they correspond closely to the time of onset of the spontaneous GH secretory episodes, as previously documented in our laboratory (2, 4). […]

ghrelin receptor [5] = target: T2, ghrelin receptor; experiment: Ghrelin-induced GH release in free-moving adult male rats after GHS-A pretreatment (icv or iv); type: in vivo; conditions: vs normal saline; for Plasma GH response to ghrelin i.c.v.: 5 μg antagonist icv 15 min before 500 ng ghrelin icv
Protocol: as §1, §2
The efficacy of GHS-A to antagonize ghrelin's stimulatory action on GH at both central and peripheral sites was examined. […] (500 ng). Both the human ghrelin peptide (provided by Dr. K. Chang, Phoenix Pharmaceuticals, Inc., Belmont, Calif.) and the GHS-A were diluted in normal saline just before use. Blood samples (0.35 ml) were withdrawn every 15 min over a 6-h sampling period (1000-1600 h) from all animals. […] All blood samples were immediately centrifuged, and plasma was separated and stored at −20° C. for subsequent assay of GH. To avoid hemodynamic disturbance, the red blood cells were resuspended in normal saline and returned to the animal after removal of the next blood sample.
Blood samples were withdrawn from 1000-1600 h, as described above.

[6] = target: Ghrelin/GHRP/GHS Receptor (Rattus norvegicus, UniProt O08725); experiment: In vitro pituitary incubation method: GH release from isolated pituitary glands, peptide alone or plus stimulator; type: cell-based; parameters: from cell culture of pituitary cells; endogenous in cells; host or cells: dispersed primary rat anterior pituitary cells, 4 days in culture; conditions: Table 12; Stimulator *S = Tyr-DTrp-Ala-Trp-Dphe-NH2 alone 0.3 μg/ml
Chain of Ghrelin/GHRP/GHS Receptor (O08725 whole entry): as above
Protocol: The peptides were synthesized by the solid phase method and purified by HPLC. GH was determined by Radioimmunoassay (RIA).
Hormonal activities were obtained from in vitro studies using pituitaries of 20 day old CD-1 strain Sprague Dawley female rats. Two pituitaries were incubated for a total of 4-6 hours. Medium was removed each hour for RIA of GH level and fresh medium was added again. After two one hour preincubation periods (P1-P2), the vehicle/peptides were added to two one hour incubations (I3-I4). Peptide activity was calculated as the change in the hormonal level (delta) between I3+I4 and P2. For antagonist activity, the incubation was continued for 2 additional hours (I5-I6) where both the peptide and a stimulator of GH secretion was added and the antagonist activity was calculated as the change in the hormonal level (delta) between I5+I6 and P2. The peptides were assayed in triplicate and the hormone was assayed in duplicate. Each value recorded represents the mean of 6. The GH RIA reagents were distributed by the NIH. Control data was collected from isolated pituitary glands treated with only the corresponding vehicle in the absence of peptide or stimulator. Control stimulated data was collected from isolated pituitary glands treated with stimulator alone in the absence of any peptide.

Work on Cc1[nH]c2ccccc2c1C[C@@H](NC(=O)[C@@H](N)Cc1cnc[nH]1)C(=O)N[C@@H](C)C(=O)N[C@@H](Cc1c[nH]c2ccccc12)C(=O)N[C@H](Cc1ccccc1)C(=O)N[C@@H](CCCCN)C(N)=O [hexarelin] (H-H[dTrp(2-Me)]AW[dF]K-NH2) yielded a Ki [1] of 0.59 nM.

In the case of H[d2Nal][dK]W[dF]K-NH2, the “Cumulative food intake after ghrelin” value (ghrelin receptor [2]; 5 μg GHS-A icv) is reported as “significantly suppressed for up to 5 h”, the “Ghrelin-stimulated food intake in the first hour after injections” value (ghrelin receptor [2]; 5 μg antagonist icv, P<0.02 or less) is reported as “significantly inhibited” and the “Spontaneous food intake in the first hour after injection” value (ghrelin receptor [3]) is reported as “significantly inhibited”. For the same compound, the “1-h GH AUC's of spontaneous GH secretory episodes at 1100 h and 1400 h, and overall 6-h GH AUC” value (ghrelin receptor [4]) was “significantly reduced”, the “Plasma GH response to ghrelin i.c.v.” value (ghrelin receptor [5]) was “virtually obliterated the GH response to ghrelin” and the “Plasma GH response to ghrelin i.c.v.” value (ghrelin receptor [5]; listed as GHS-A) was “abolished the stimulatory action of ghrelin on GH release”. The “Plasma GH response to ghrelin i.v.” value (ghrelin receptor [5]; 250 μg antagonist iv 15 min before 5 μg ghrelin iv, listed as GHS-A) was “strongly blocked ghrelin's ability to release GH”, the “Reduction of GH AUC following i.c.v. ghrelin” value (ghrelin receptor [5]; GHS-A icv pretreatment, 500 ng ghrelin icv, P<0.0003 or less) was 15 fold and the “Reduction of GH AUC following i.v. ghrelin” value (ghrelin receptor [5]; GHS-A iv pretreatment, 5 μg ghrelin iv, P<0.0003 or less) was 5 fold.

With Tyr-DTrp-Ala-Trp-Dphe-NH2 the “Stimulated Control GH release” value [6] was 2218 ± 194 ng/mL.
